Data set [1] concerns the target T1, Multidrug resistance-associated protein 1 (Homo sapiens, UniProt P33527). Put plainly: Activity of MRP1.
The target in data set [2] is T1, Multidrug resistance-associated protein 1. Put plainly: Activity at MRP1 in human HeLa T5 cells assessed as ATP-dependent drug transport at 50 nM measured per mg of protein. The data set is classed as cell-based. Particulars: 0.05 µM.

T1 sequence (P33527 whole entry): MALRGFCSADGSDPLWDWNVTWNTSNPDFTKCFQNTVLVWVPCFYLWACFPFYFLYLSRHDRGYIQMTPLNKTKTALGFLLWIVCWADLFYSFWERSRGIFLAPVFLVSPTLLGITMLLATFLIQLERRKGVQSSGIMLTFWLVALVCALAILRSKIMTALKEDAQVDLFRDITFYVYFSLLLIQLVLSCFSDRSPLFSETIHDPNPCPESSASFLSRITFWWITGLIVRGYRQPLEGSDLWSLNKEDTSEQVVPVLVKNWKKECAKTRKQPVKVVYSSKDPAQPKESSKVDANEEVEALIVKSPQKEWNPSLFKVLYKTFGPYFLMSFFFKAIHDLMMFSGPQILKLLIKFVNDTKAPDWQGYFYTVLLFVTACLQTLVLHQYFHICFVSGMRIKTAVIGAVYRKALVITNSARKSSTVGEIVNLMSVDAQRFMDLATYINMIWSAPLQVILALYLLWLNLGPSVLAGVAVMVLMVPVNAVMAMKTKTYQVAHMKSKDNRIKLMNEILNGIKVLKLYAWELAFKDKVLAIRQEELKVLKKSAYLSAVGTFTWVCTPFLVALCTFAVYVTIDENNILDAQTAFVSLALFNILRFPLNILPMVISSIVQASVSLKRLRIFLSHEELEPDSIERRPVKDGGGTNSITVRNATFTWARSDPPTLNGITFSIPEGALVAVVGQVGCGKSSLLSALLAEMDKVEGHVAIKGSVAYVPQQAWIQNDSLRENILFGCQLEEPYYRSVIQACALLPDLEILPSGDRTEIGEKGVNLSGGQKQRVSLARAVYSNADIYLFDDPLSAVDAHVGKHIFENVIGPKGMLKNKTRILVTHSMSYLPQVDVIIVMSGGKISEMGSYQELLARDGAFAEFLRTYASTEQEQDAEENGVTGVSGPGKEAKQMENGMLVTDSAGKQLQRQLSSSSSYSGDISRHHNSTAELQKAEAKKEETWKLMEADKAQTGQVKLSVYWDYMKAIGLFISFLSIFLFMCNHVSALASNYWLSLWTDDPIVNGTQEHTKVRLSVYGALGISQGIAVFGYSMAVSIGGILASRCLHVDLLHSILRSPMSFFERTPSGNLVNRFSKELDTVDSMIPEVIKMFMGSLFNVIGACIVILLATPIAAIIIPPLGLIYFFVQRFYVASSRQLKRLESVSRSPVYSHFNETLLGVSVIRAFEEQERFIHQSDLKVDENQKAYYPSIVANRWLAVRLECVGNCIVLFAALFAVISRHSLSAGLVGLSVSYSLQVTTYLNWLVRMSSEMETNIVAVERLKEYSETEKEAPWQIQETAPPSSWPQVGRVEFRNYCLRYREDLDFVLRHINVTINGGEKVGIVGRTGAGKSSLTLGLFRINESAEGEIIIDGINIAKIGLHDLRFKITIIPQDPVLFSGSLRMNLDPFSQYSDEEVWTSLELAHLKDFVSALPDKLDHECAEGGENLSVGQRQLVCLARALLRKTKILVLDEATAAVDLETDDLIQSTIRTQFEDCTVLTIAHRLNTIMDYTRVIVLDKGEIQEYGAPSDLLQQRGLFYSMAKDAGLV

Regarding `Cc1ccc(N(CC(=O)O)CC(=O)O)c(OCCOc2cc(-c3c4cc(Cl)c(=O)cc-4oc4cc(O)c(Cl)cc34)ccc2N(CC(=O)O)CC(=O)O)c1`, the Km (commonly the substrate concentration at which the rate is half of its maximum) in data set [1] was 12 µM. Take `CCCCC/C=C\C\C=C/C=C/C=C/[C@@H](SC[C@H](N)C(=O)NCC(=O)O)[C@@H](O)CCCC(=O)O` [LEUKOTRIENE D4]: the Activity in data set [2] turned out to be 15 pmol/min. Regarding `CCCCC/C=C\C\C=C/C=C/C=C/[C@@H](SC[C@H](N)C(=O)O)[C@@H](O)CCCC(=O)O` [LEUKOTRIEN E4], the Activity in data set [2] was found to be 8 pmol/min.

The record behind these values is ChEMBL document CHEMBL1140936, “Topological polar surface area defines substrate transport by multidrug resistance associated protein 1 (MRP1/ABCC1)” (J Med Chem, 2009).
